Source: paper PMC6156125, “Chemistry and Hypoglycemic Activity of GPR119 Agonist ZB-16” (Frontiers in Endocrinology, 2018)
Converted amounts (≈) assume the structure as drawn.

What was measured:
[1] = Biotransformation in vitro, microsomal stability (human); type: in vitro ADME
Method: The metabolism of the compounds was studied in commercially available microsomal fractions derived from human and rat hepatocytes. Test compounds (0.5 μM) were incubated with microsomal fractions in the presence of NADPH during 30 min in a shaker at 37°C. Reactions were stopped at 0, 5, 10, 15, and 30 min by adding acetonitrile. After proteins precipitation, the remaining amount of the test compound in the supernatant was detected with high performance liquid chromatography tandem-mass spectrometry (HPLC-MS/MS) method using Agilent 1260 liquid chromatograph (Agilent Technologies, Santa Clara, CA, USA) and a QTRAP6500 triple quadrupole mass spectrometer with a TurboIonSpray electro-spraying module (ABSciex, Foster City, CA, USA) ([15]). Incubation was performed twice, with at least 2 measurements for each replicate (n ≥ 3). The half-life (T1/2), the clearance in vitro (CLint) and the remaining amount of substance (% of initial quantity) were calculated.

CYP1A2 = target: T1, CYP1A2 (Homo sapiens, UniProt P05177); test: CYP inhibition, Vivid CYP450 Screening Kit; type: in vitro ADME; details: 0.0046 to 10 μM tested
T1 construct: purchased Invitrogen Corporation, Carlsbad, CA, USA
T1 sequence (P05177 1-516): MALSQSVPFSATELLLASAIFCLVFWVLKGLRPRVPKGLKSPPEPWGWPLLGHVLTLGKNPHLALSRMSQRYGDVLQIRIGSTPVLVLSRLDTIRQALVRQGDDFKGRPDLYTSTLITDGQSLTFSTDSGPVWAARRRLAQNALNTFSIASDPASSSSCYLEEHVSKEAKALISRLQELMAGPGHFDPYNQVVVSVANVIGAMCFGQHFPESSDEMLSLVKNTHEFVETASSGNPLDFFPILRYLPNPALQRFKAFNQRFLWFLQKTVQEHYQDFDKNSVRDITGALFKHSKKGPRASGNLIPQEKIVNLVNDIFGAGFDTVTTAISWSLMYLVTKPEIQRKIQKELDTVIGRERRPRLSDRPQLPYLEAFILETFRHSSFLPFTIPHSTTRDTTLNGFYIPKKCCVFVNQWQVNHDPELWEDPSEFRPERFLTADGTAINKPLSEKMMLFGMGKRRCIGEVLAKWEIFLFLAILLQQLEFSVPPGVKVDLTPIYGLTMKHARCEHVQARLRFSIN
Method: (§1) Briefly, the reaction was initiated by adding NADP^+ and a substrate converted to fluorescent derivates by specific CYP isozyme. The reaction was terminated by adding 1M Tris. The fluorescence of the reaction product, which was proportional to CYP isozyme activity, was measured. […] The minimal signal was defined as the signal obtained without enzyme incubation. The inhibitory action of test compounds on the CYP isozymes was expressed in terms of median inhibitory concentration (IC50).

CYP2C19 = target: T2, CYP2C19 (Homo sapiens, UniProt P33261); test: CYP inhibition, Vivid CYP450 Screening Kit; type: in vitro ADME; details: 0.0046 to 10 μM tested
T2 construct: purchased Invitrogen Corporation, Carlsbad, CA, USA
T2 sequence (P33261 whole entry): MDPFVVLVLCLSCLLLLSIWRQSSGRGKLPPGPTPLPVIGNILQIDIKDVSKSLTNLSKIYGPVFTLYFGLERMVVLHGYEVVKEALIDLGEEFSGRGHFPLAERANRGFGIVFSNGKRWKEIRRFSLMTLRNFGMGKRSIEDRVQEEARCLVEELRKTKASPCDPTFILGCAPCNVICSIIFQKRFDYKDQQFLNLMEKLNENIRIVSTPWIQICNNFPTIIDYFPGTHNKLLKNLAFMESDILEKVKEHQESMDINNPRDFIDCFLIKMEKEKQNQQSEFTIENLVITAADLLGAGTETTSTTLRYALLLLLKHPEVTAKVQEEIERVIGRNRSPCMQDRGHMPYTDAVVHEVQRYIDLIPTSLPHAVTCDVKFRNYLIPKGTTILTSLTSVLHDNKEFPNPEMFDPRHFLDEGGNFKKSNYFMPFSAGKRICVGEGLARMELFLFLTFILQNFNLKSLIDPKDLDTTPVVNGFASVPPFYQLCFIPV
Method: as §1

CYP2C9 = target: T3, CYP2C9 (Homo sapiens, UniProt P11712); test: CYP inhibition, Vivid CYP450 Screening Kit; type: in vitro ADME; details: 0.0046 to 10 μM tested
T3 construct: purchased Invitrogen Corporation, Carlsbad, CA, USA
T3 sequence (P11712 whole entry): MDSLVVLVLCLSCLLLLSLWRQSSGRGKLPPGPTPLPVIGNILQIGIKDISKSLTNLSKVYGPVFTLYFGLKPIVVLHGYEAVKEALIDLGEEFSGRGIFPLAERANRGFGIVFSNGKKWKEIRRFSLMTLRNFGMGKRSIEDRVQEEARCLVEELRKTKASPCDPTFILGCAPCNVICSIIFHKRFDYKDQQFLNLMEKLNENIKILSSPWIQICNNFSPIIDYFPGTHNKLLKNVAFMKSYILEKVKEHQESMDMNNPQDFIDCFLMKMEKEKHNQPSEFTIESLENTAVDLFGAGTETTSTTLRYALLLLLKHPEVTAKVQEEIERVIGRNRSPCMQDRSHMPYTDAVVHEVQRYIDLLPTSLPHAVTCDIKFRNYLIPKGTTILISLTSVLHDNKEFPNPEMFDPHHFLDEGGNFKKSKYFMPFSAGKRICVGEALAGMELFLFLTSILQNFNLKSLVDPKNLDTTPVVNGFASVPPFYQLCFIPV
Method: as §1

CYP2D6 = target: T4, CYP2D6 (Homo sapiens, UniProt P10635); test: CYP inhibition, Vivid CYP450 Screening Kit; type: in vitro ADME; details: 0.0046 to 10 μM tested
T4 construct: purchased Invitrogen Corporation, Carlsbad, CA, USA
T4 sequence (P10635 whole entry): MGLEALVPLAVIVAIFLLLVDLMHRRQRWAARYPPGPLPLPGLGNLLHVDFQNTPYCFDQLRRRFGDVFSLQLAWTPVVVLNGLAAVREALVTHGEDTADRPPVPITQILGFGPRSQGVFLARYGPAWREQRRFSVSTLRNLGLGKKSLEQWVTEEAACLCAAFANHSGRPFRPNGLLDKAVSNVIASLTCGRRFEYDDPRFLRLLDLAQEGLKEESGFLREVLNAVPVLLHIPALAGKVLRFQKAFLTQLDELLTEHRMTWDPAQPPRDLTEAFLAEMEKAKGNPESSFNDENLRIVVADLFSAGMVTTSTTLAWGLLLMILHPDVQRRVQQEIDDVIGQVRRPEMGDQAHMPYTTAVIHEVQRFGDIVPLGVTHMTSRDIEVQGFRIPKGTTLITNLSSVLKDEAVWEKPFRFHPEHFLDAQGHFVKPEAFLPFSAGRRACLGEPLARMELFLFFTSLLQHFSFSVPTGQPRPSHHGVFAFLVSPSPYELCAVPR
Method: as §1

CYP3A4 = target: T5, CYP3A4 (Homo sapiens, UniProt P08684); test: CYP inhibition, Vivid CYP450 Screening Kit; type: in vitro ADME; details: 0.0046 to 10 μM tested
T5 construct: purchased Invitrogen Corporation, Carlsbad, CA, USA
T5 sequence (P08684 whole entry): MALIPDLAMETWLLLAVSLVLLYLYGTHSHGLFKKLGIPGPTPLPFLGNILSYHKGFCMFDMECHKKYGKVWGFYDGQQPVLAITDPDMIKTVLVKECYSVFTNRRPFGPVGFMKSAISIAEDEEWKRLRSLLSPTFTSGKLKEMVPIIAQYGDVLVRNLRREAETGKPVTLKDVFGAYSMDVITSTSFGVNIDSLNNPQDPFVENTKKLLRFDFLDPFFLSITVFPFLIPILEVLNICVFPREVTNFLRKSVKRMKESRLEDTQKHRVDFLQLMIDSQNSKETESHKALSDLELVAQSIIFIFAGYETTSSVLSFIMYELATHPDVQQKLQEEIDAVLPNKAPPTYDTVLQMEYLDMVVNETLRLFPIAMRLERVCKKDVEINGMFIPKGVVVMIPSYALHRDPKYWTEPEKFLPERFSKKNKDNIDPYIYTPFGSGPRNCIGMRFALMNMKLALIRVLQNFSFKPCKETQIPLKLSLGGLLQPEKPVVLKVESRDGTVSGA
Method: as §1

HepG2 cell culture = test: Cell toxicity in vitro, Cell Titer Glo cell viability (ATP); type: cell-based, human; details: Figure 3
Method: Cell viability was estimated by the quantity of ATP produced by the HepG2 cell culture, derived from human liver hepatocellular carcinoma. Experiments were performed using a Cell Titer Glo Cell Viability (Promega) test system ([17]). Tubercidin, an inhibitor of various cellular metabolic processes, including RNA processing, nucleic acid synthesis, protein synthesis, and methylation of tRNA through intracellular incorporation into nucleic acids, was used as a positive control ([18]). Median inhibitory concentration (IC50) was used as a quantitative parameter to evaluate cell toxicity. To evaluate inhibition effectiveness (% Inh), the following formula was used: % Inh = [(Lpos − Lexp)/(Lpos − Lneg)] ^* 100%, where Lpos is the positive control (luminescence in cells with no compound); Lneg is the negative control (luminescence in cells containing medium but no cells); and Lexp is the luminescence in cells containing the compound at a certain concentration. IC50 values were calculated using Prism 5 and the criteria for minimization of the experimental points squares deviation from the theoretically calculated curve algorithm.

[2] = system: male Wistar rats with streptozotocin-nicotinamide induced type 2 diabetes mellitus (STZ-NA T2D); parameters: method as in PMID 28736546; details: 1 mg/kg/day orally for 28 day, ref [11]; cited from earlier work
physchem = details: Britton-Robinson universal buffer, kinetic from dmso stock

## O=S1(=O)COc2cc(-c3ccc(OCC4CCN(c5ncc(Cl)cn5)CC4)c(F)c3)ccc21 [ZB-16]
[1]; Human microsomal fraction
  ER: 0.76
[1]; Human microsomal fraction, in mL/min/kg (unit assumed)
  CLh: 16.43
[1]; liver microsomal fraction
  microsomal CLint at 0.5 μM: 65.2 µL/min/mg
[1]; liver microsomal fraction, 0.5 μM, NADPH, read-out: t1/2, min
  half-life at 0.5 μM: 42.5 min
CYP1A2
  IC50: > 10 µM
CYP2C19
  IC50: > 10 µM
CYP2C9
  IC50: > 10 µM
CYP2D6
  IC50: > 10 µM
CYP3A4
  IC50: > 10 µM
HepG2 cell culture
  effect on HepG2 cell culture viability: no effect
[2]
  blood glucose levels under fasting conditions: decreased
  glucose utilization: improved
  stimulated secretion of GLP-1 and insulin: increase
physchem; pH 2, aqueous buffer
  solubility: 52 µM (≈ 25.5 µg/mL)
physchem; pH 4, aqueous buffer
  solubility: < 3 µM
physchem; pH 7, aqueous buffer
  solubility: 4 µM (≈ 1.96 µg/mL)
